Experimental data reported in patent publication US20130143929A1, “FUNGICIDAL IMIDAZOLES” (EI DU PONT DE NEMOURS AND COMPANY, priority 2010, published 2013).
Marks after values point to notes of the source that are not given here.

Experiments:
Assay type in all cases: in vivo
[1] = system: Puccinia recondite f. sp. tritici (the causal agent of wheat leaf rust); test: Test A: wheat leaf rust, preventive spray on wheat seedlings, visual disease rating; details: wheat leaf rust, preventive spray on wheat seedlings
Outline: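 This was a preventive test: Puccinia recondite f. sp. tritici inoculum was applied one day after compound spray to run-off. Test suspensions were made in 50/50 acetone/water with 250 ppm surfactant, at 200 ppm (800 g/ha equivalent) or 40 ppm. Visual ratings of % disease control relative to controls were made after 24 h of saturated humidity and 7 growth-chamber days, all at 20° C.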

[2] = system: Septoria tritici (the causal agent of wheat leaf blotch); test: Test B: wheat leaf blotch, preventive spray on wheat seedlings, visual disease rating; details: wheat leaf blotch, preventive spray on wheat seedlings
Outline: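 Preventive test: Septoria tritici spores applied one day after run-off spraying of seedlings (200 ppm equals 800 g/ha; some tests 40 ppm). After 48 h at 24 °C saturated atmosphere and 19 days at 20 °C, disease scored visually as % control relative to untreated plants.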

[3] = system: Botrytis cinerea (the causal agent of tomato Botrytis); test: Test C: tomato Botrytis, preventive spray on tomato seedlings, visual disease rating; details: tomato Botrytis, preventive spray on tomato seedlings
Outline: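 Preventive test: B. cinerea spore inoculation one day after tomato seedlings were sprayed to run-off with compound suspended in 50/50 acetone–water plus 250 ppm surfactant. Plants held 48 h at 20° C in saturated air, then 3 days at 24° C; visual ratings scored 100 (full control) to 0 versus controls; some entries used 40 ppm.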

[4] = system: Blumeria graminis f. sp. tritici (also known as Erysiphe graminis f. sp. tritici, the causal agent of wheat powdery mildew); test: Test D: wheat powdery mildew, preventive spray on wheat seedlings, visual disease rating; details: wheat powdery mildew, preventive spray on wheat seedlings
Outline: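 Preventive test: seedlings sprayed to run-off and inoculated with powdery mildew spores one day later. Suspensions were made in 50/50 acetone/water with 250 ppm Trem 014 surfactant (200 ppm equals 800 g/ha). Visual ratings after 8 days at 20 °C give percent disease control versus controls.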

[5] = asterisk: 40 ppm test suspension
[6] = no asterisk (standard test suspension concentration, not 40 ppm)

Row | Structure (SMILES) | Test A rating (100 = 100% disease control, 0 = no disease control relative to the controls) [1, 5] | Test B rating (100 = 100% disease control, 0 = no disease control relative to the controls) [2, 5] | Test C rating (100 = 100% disease control, 0 = no disease control relative to the controls) [3, 5] | Test D rating (100 = 100% disease control, 0 = no disease control relative to the controls) [4, 5] | Test A rating (100 = 100% disease control, 0 = no disease control relative to the controls) [1, 6] | Test B rating (100 = 100% disease control, 0 = no disease control relative to the controls) [2, 6] | Test C rating (100 = 100% disease control, 0 = no disease control relative to the controls) [3, 6] | Test D rating (100 = 100% disease control, 0 = no disease control relative to the controls) [4, 6]
1 | Cc1nc(Br)c(C(O)c2ccc(C#N)cc2F)n1-c1c(F)cccc1F (stereo not shown) [compound 199] | 0* % | 62* % | 0* % | 0* % | – | – | – | –
2 | Cc1nc(Cl)c(C(O)c2ccc(F)cc2Cl)n1-c1c(F)cccc1Cl (stereo not shown) [compound 200] | 100* % | 100* % | 99* % | 98* % | – | – | – | –
3 | Cc1nc(Br)c(C(O)c2ccc(Cl)cc2Cl)n1-c1c(F)cccc1Cl (stereo not shown) [compound 201] | 100* % | 100* % | 99* % | 89* % | – | – | – | –
4 | Cc1nc(Br)c(C(O)c2ccc(Cl)cc2Cl)n1-c1c(F)cccc1F (stereo not shown) [compound 202] | 98* % | 100* % | 100* % | 82* % | – | – | – | –
5 | COc1cc(OC)c(Br)c(-n2c(C)nc(Br)c2C(O)c2c(F)cc(F)cc2F)c1 (stereo not shown) [compound 203] | – | – | – | – | 41% | 30% | 66% | 0%
6 | Cc1nc(Cl)c(C(O)c2c(F)cc(F)cc2F)n1-c1ccc(Cl)cc1 (stereo not shown) [compound 204] | – | – | – | – | 19% | 75% | 45% | 0%
7 | Cc1nc(Cl)n(-c2c(F)cccc2Br)c1C(O)c1ccc(F)cc1F (stereo not shown) [compound 205] | 99* % | 100* % | 100* % | 93* % | – | – | – | –
8 | Cc1nc(Cl)n(-c2c(F)cccc2Cl)c1C(O)c1ccc(F)cc1Cl (stereo not shown) [compound 206] | 100* % | 100* % | 100* % | 93* % | – | – | – | –
9 | Cc1nc(Cl)n(-c2c(F)cccc2Br)c1C(O)c1ccc(F)cc1Cl (stereo not shown) [compound 207] | 100* % | 100* % | 100* % | 81* % | – | – | – | –
10 | Cc1cc(F)ccc1C(O)c1c(C)nc(Cl)n1-c1c(F)cccc1Cl (stereo not shown) [compound 208] | 100* % | 100* % | 99* % | 81* % | – | – | – | –
